Consider five compounds from US5874442A, “Tricyclic amides useful for inhibition of G-protein function and for treatment of proliferative disease” (Schering-Plough Corporation, priority 1996, dated 1999).

Read-outs that look alike come from different tables or passages of the source.

The target in test [1] is T1, farnesyl protein transferase (FPT) (Rattus norvegicus, UniProt Q02293+Q04631).
T1 construct: were partially purified from rat brain by ammonium sulfate fractionation; from tissue; host or cells: rat brain (ammonium sulfate fractionation, Q-Sepharose)
The test can be described thus: In vitro enzyme assay: inhibition of farnesyl protein transferase (FPT), [3H]farnesyl transfer to Ras-CVLS. The test is classed as biochemical. On the procedure:
(§1) 1. In vitro enzyme assays:
(§2) Inhibition of farnesyl protein transferase and geranylgeranyl protein transferase.
Human farnesyl protein transferase was also expressed in E. coli, using cDNA clones encoding both the a and b subunits. […] Human farnesyl protein transferase was partially-purified from the soluble protein fraction of E. coli as described above. […] Two forms of val^12 -Ha-Ras protein were prepared as substrates for these enzymes, differing in their carboxy terminal sequence. One form terminated in cysteine-valine-leucine-serine (Ras-CVLS) the other in cystein-valine-leucine-leucine (Ras-CVLL). Ras-CVLS is a substrate for the farnesyl protein transferase while Ras-CVLL is a substrate for geranylgeranyl protein transferase I. The cDNAs encoding these proteins were constructed so that the proteins contain an amino-terminal extension of 6 histidine residues. Both proteins were expressed in Escherichia coli and purified using metal chelate affinity chromatography. The radiolabelled isoprenyl pyrophosphate substrates, [^3 H]farnesyl pyrophosphate and [^3 H] geranylgeranyl pyrophosphate, were purchased from DuPont/New England Nuclear.
The reaction was allowed to proceed for 30 minutes at room temperature and then stopped with 0.5 ml of 4% sodium dodecyl sulfate (SDS) followed by 0.5 ml of cold 30% TCA. Samples were allowed to sit on ice for 45 minutes and precipitated Ras protein was then collected on GF/C filter paper mats using a Brandel cell harvester. […] Percent inhibition was calculated relative to the DMSO vehicle control.

Test [2] has as its target T2, geranylgeranyl protein transferase (GGPT) I (Rattus norvegicus, UniProt P53610+Q04631).
T2 construct: were partially purified from rat brain by ammonium sulfate fractionation; from tissue; host or cells: rat brain (ammonium sulfate fractionation, Q-Sepharose)
The test is described as follows: In vitro enzyme assay: inhibition of geranylgeranyl protein transferase I (GGPT), Ras-CVLL as acceptor. The test is classed as biochemical.
Excerpt: as §1, §2
Both farnesyl protein transferase (FPT) and geranylgeranyl protein transferase (GGPT) I were partially purified from rat brain by ammonium sulfate fractionation followed by Q-Sepharose (Pharmacia, Inc.) anion exchange chromatography essentially as described by Yokoyama et al (Yokoyama, K., et al., (1991), A protein geranylgeranyltransferase from bovine brain: Implications for protein prenylation specificity, Proc. Natl. Acad. Sci USA 88: 5302-5306, the disclosure of which is incorporated herein by reference thereto). Human farnesyl protein transferase was also expressed in E. coli, using cDNA clones encoding both the a and b subunits. The methods used were similar to those published (Omer, C. et al., (1993), Characterization of recombinant human farnesyl protein transferase: Cloning, expression, farnesyl diphosphate binding, and functional homology with yeast prenyl-protein transferases, Biochemistry 32:5167-5176). Human farnesyl protein transferase was partially-purified from the soluble protein fraction of E. coli as described above. The tricyclic farnesyl protein transferase inhibitors disclosed herein inhibited both human and rat enzyme with similar potencies. […]

Test [3] has as its system Ras-CVLS processing in COS cells. The test can be described thus: Cell-based COS cell assay: inhibition of Ras processing (Ras-CVLS). Set-up: species or system monkey. The following applies: Primates, COS. The source says: (§3) Transient expression of val^12 -Ha-Ras-CVLS and […] -Ha-Ras-CVLL in COS monkey kidney cells: Effect of farnesyl protein transferase inhibitors on Ras processing and on disordered cell growth induced by transforming Ras.
COS monkey kidney cells were transfected by electroporation with the plasmid pSV-SPORT (Gibco/BRL) containing a cDNA insert encoding either Ras-CVLS or Ras-CVLL, leading to transient overexpression of a Ras substrate for either farnesyl protein transferase or geranylgeranyl protein transferase I, respectively (see above).
Following electroporation, cells were plated into 6-well tissue culture dishes containing 1.5 ml of Dulbecco's-modified Eagle's media (GIBCO, Inc.) supplemented with 10% fetal calf serum and the appropriate farnesyl protein transferase inhibitors. After 24 hours, media was removed and fresh media containing the appropriate drugs was re-added.
48 hours after electroporation cells were examined under the microscope to monitor disordered cell growth induced by transforming Ras. Cells expressing transforming Ras become more rounded and refractile and overgrow the monolayer, reminiscent of the transformed phenotype. Cells were then photographed, washed twice with 1 ml of cold phosphate-buffered saline (PBS) and removed from the dish by scraping with a rubber policeman into 1 ml of a buffer containing 25 mM Tris, pH 8.0; 1 mM ethylenediamine tetraacetic acid; 1 mM phenylmethylsulfonyl fluoride; […]; and 0.1 mM pepstatin. Cells were lysed by homogenization and cell debris was removed by centrifugation at 2000× g for 10 min.
Cellular protein was precipitated by addition of ice-cold trichloroacetic acid and redissolved in […] of SDS-electrophoresis sample buffer. […] Proteins resolved on the gels were electroblotted onto nitrocellulose membranes for immunodetection.
After washing, membranes were incubated for one hour at room temperature with a 1:5000 dilution of secondary antibody, rabbit anti-rat lgG conjugated to horseradish peroxidase, in PBS containing 1% fetal calf serum. The presence of processed and unprocessed Ras-CVLS or Ras-CVLL was detected using a colorimetric peroxidase reagent (4-chloro-1-naphthol) as described by the manufacturer (Bio-Rad).

The subject of test [4] is T24-BAG4 human bladder carcinoma cells expressing an activated H-ras gene. The test is described as follows: Cell mat assay, T24-BAG4 tumor cells. The test is classed as cell-based. The following applies: Homo sapiens, 336 h, read-out: Tumor (T-24) IC50. On the procedure:
(§4) Compound-induced colony inhibition was assayed by addition of serial dilutions of compound directly to the growth medium 24 h after tumor cell planting, and incubating cells for an additional 14 d to allow colony formation. Assays were terminated by rinsing monolayers twice with phosphate-buffered saline (PBS), fixing the monolayers with a 1% glutaraldehyde solution in PBS, then visualizing tumor cells by staining with X-Gal (Price, J., et al., Lineage analysis in the vertebrate nervous system by retrovirus-mediated gene transfer, Proc. Natl. Acad. Sci.84, 156-160(1987)). […] Both IC50 values were obtained by determining the density of tumor cells and mat cells by visual inspection and enumeration of cells per colony and the number of colonies under the microscope.

In test [5] the test system is DLD-1-BAG human colon carcinoma cells. The test is described as follows: Cell mat assay, DLD-1-BAG tumor cells. The test is classed as cell-based. The conditions noted are these: Homo sapiens, DLD-1, 336 h, read-out: Tumor (DLD-1) IC50. The procedure: as §4
(§5) Additional assays were carried out by following essentially the same procedure as described above, but with substitution of alternative indicator tumor cell lines in place of the T24-BAG cells. The assays were conducted using either DLD-1-BAG human colon carcinoma cells expressing as activated K-ras gene or SW620-BAG human colon carcinoma cells expressing an activated K-ras gene.

The test system of test [6] is SW620-BAG human colon carcinoma cells expressing an activated K-ras gene. The test can be described thus: Cell mat assay, SW620-BAG tumor cells. The following applies: Homo sapiens, SW-620, 336 h, read-out: Tumor (SW620) IC50, Mat assay, 14 d. The test is classed as cell-based. The procedure:
as §4, §5

Test [7] deals with Normal human HEPM fibroblasts. The test can be described thus: Cell mat assay, normal cells (cell mat). The test is classed as cell-based. The following applies: Homo sapiens, Fibroblast, 336 h, read-out: Normal IC50. The procedure: as §4
Another test concerns K ras NIH 3T3. The test is described as follows: Soft agar assay. The test is classed as cell-based. The conditions noted are these: Mus musculus, NIH3T3, read-out: IC50, inhibition of human tumor cell growth, soft agar.
The next test concerns H ras NIH 3T3. The test is described as follows: Soft agar assay. The test is classed as cell-based. The conditions noted are these: Mus musculus, NIH3T3, read-out: IC50, inhibition of human tumor cell growth, soft agar.
In a further test the test system is A549. The test is described as follows: Soft agar assay. The test is classed as cell-based. The following applies: Homo sapiens; A549 (lung) K ras mutation; read-out: IC50, inhibition of human tumor cell growth, soft agar. The procedure: (§6) Anchorage-independent growth is a characteristic of tumorigenic cell lines. Human tumor cells are suspended in growth medium containing 0.3% agarose and an indicated concentration of a farnesyl transferase inhibitor. The solution is overlayed onto growth medium solidified with 0.6% agarose containing the same concentration of farnesyl transferase inhibitor as the top layer. […] After incubation, the colonies are stained by overlaying the agar with a solution of MTT (3-[4,5-dimethylthiazol-2-yl]-2,5-diphenyltetrazolium bromide, Thiazolyl blue) (1 mg/mL in PBS). Colonies are counted and the IC50's determined.

The next test has as its system HTB 175. The test can be described thus: Soft agar assay. The conditions noted are these: Homo sapiens; HTB 175 (SCLC) ras mut. not detected; read-out: IC50, inhibition of human tumor cell growth, soft agar. The test is classed as cell-based. On the procedure: as §6
For another test, the system named is HTB 177. The test is described as follows: Soft agar assay. The test is classed as cell-based. The conditions noted are these: Homo sapiens; HTB 177 (NSCLC) K ras mutation; read-out: IC50, inhibition of human tumor cell growth, soft agar. The procedure: as §6
In test [8] the test system is DLD-1 (human colon carcinoma cells). The test is described as follows: In vivo anti-tumor studies, subcutaneous DLD-1 tumors in athymic nu/nu mice. Set-up: species or system athymic nu/nu female mice. The conditions noted are these: Mus musculus, DLD-1, po, […], QID, 7 days per week for 4 weeks, read-out: Average % Tumor Inhibition; for inhibition in vivo at 50 mg/kg: 50 mg/kg p.o.; for inhibition in vivo at 10 mg/kg: 10 mg/kg p.o.
Method: Tumor bearing animals are selected and randomized when the tumors are established. Animals are treated with vehicle (β-cyclodextrin for i.p. or corn oil for p.o.) only or with a compound of the present invention in vehicle four times a day (QID) for 7 days per week for 4 weeks. The percent inhibition of tumor growth relative to vehicle controls is determined by tumor measurements.

Test [9] relates to geranylgeranylation of Ras-CVLL in COS cells. The test can be described thus: Cell-based COS cell assay: geranylgeranylation of Ras-CVLL. The following applies: at concentrations up to 33 μM. The arrangement: species or system monkey.
Excerpt: as §3
COS monkey kidney cells were transfected by electroporation with the plasmid pSV-SPORT (Gibco/BRL) containing a cDNA insert encoding either Ras-CVLS or Ras-CVLL, leading to transient overexpression of a Ras substrate for either farnesyl protein transferase or geranylgeranyl protein transferase I, respectively (see above). […]
Membranes were blocked by incubation overnight at 4° C. in PBS containing 2.5% dried milk and 0.5% Tween-20 and then incubated with a Ras-specific monoclonal antibody, Y13-259 (Furth, M. E., et al., (1982), Monoclonal antibodies to the p21 products of the transforming gene of Harvey murine sarcome virus and of the cellular ras gene family, J. Virol. 43:294-304), in PBS containing 1% fetal calf serum for one hour at room temperature. […] The presence of processed and unprocessed Ras-CVLS or Ras-CVLL was detected using a colorimetric peroxidase reagent (4-chloro-1-naphthol) as described by the manufacturer (Bio-Rad).

T2 sequence (P53610 whole entry, one chain of several): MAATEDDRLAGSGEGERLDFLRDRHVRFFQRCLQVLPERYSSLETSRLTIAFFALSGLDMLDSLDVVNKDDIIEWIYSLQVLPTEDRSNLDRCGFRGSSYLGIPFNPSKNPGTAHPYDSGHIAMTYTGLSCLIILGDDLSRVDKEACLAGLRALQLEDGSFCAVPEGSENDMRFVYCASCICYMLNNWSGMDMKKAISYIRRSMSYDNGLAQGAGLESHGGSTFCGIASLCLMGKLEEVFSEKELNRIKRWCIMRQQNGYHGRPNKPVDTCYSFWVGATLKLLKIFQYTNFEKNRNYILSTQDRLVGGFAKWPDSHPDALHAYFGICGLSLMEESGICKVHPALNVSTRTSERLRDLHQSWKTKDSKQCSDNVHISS

In general, IC50 refers to the point on the concentration scale where inhibition reaches its midpoint. Turning to `O=C(Cc1cc[n+]([O-])cc1)N1CCN(C2c3ccc(Cl)c(Br)c3CCc3cc(Br)cnc32)CC1` (racemic) [Example 5B], the IC50 is ~3 nM in test [1]; > 300000 nM in test [2]; 50 nM in test [3] (read-out: Inhibition of Ras Processing IC50, Table 3, COS cells); < 1600 nM in [4]; 3100 nM in test [5]; 10000 nM in [6]. In test [7], the IC50 was > 25000 nM.
For the compound `NC(=O)N1CCC(CC(=O)N2CCC(C3c4ncc(Br)cc4CCc4cc(Cl)cc(Cl)c43)CC2)CC1` (single isomer, unassigned) [Example 18], the IC50 was 800 nM in the test on K ras NIH 3T3; 175 nM in the test on H ras NIH 3T3; 300 nM in the test on A549; 600 nM with HTB 175; 200 nM with HTB 177. For the same compound, in test [8] (Experiment No. 1), the inhibition in vivo at 50 mg/kg is 73%. Further, in [8] (Experiment No. 2), the inhibition in vivo at 10 mg/kg was found to be 43%.
Regarding `O=C(Cc1cc[n+]([O-])cc1)N1CCN(C2c3ncc(Br)cc3CCc3cccc(Cl)c32)CC1` (single isomer, unassigned) [Example 20], the values for the 50% inhibitory concentration (IC50) in test [1] and in test [2] were 6.2 nM and > 38000 nM, respectively.
For `O=C(Cc1cc[n+]([O-])cc1)N1CCC(=C2c3ccc(Cl)c(Br)c3CCc3cc(Br)cnc32)CC1` [Example 2], the IC50 in test [3] (Table 3, COS cells, read-out: Inhibition of Ras Processing IC50) came out at 250 nM. In test [9], the “block of geranylgeranylation of Ras-CVLL” value is listed as “did not block the geranylgeranylation of Ras-CVLL”. The results for the inhibition in vivo at 50 mg/kg in [8] (Experiment No. 1) and in [8] (Experiment No. 3) were 47% and 52.7%, respectively. In addition, the inhibition in vivo at 10 mg/kg in test [8] (Experiment No. 2) was found to be 25%; in [8] (Experiment No. 4) it was 31.9%.
As to `O=C(Cc1cc[n+]([O-])cc1)N1CCN([C@@H]2c3ccc(Cl)c(Br)c3CCc3cc(Br)cnc32)CC1` [Example 5A], the IC50 in test [1] was > 99 nM; in [4] it was 12500 nM; in test [5] it was 12500 nM; in [6] it was > 25000 nM; in test [7], > 25000 nM.
